The record followed here is patent publication US6613880B2, “Pipecolic acid derivatives of proline threonine amides useful for the treatment of rheumatoid arthritis” (Pharmacia Corporation, priority 1995, dated 2003).

Square brackets hold non-standard residues; d marks the D form. Peptide text beside a SMILES is read from it. * marks the point of attachment. ξ: configuration not given here. Butanoyl(3S-cHex) = C[C@@H](CC(=O)*)C1CCCCC1; Propanoyl(3-cHex) = O=C(CCC1CCCCC1)*; Thr(3ξ) = CC(O)[C@H](N)C(=O)O; Leu(ol) = CC(C)C[C@H](N)CO; Pip = O=C(O)[C@@H]1CCCCN1; NHPr = CCCN*

The target of this experiment is T1, DR(αβ1*0401) molecules (DR4) (Homo sapiens, UniProt P01903+P01911, A100K/A169T/F76Y/I96L/K127E/L162R/M171V/N62H/P40V/Q125Y/R42H/S133A/S149N/S66Y/V115G/V209L/W38E).
T1 construct: made in house
The experiment is described as follows: Competitive Binding for DR4 (Competition Capture ELISA). To be noted: competition with 50 nM biotinylated ML37-49 peptide for immunoaffinity purified DRB1*0401, pH 5.5, overnight at 37° C. The method, then:
Competitive Binding for DR4 (Competition Capture ELISA)
DR(αβ1*0401) molecules are affinity purified with L243 monoclonal antibody (hybridoma obtained from ATCC) using a modification of a published procedure (Gorga, J. C., et al., 1991. Res. Immunol. 142:401-407.). Duplicate samples of immunoaffinity purified DRB1*0401 molecules (0.5 μg/well) are incubated overnight at 37° C. with 50 nM biotinylated ML37-49 peptide in the presence or absence of 1 nM to 100 μM competitor peptides in 96-well polypropylene microtiter plates (Costar, Cambridge, Mass.). All dilutions are made in phosphate buffered saline, pH 5.5 containing 1% octaglucoside (Boehringher Mannheim). LB3.1 antibody (obtained from J. Strominger, Cambridge, Mass.) is plated onto flat-bottom 96-well polystyrene microtiter plates (Falcon, Becton-Dickinson, Mountainview, Calif.) in 0.1 M carbonate coating buffer, pH 9.6 overnight at 4° C. Antibody coated microtiter plates are blocked with 1% Carnation nonfat milk for 1 hr at room temperature. The plates are washed 3 times with PBS containing 0.05% Tween 20 (Biorad, Hercules, Calif.). The class II/peptide mixtures are added, incubated for 1 hr at 37° C., and washed as described above. Extravidin conjugated horseradish peroxidase (1:1000, Sigma Chemicals) is added to the wells and incubated for 30-60 min at 37° C. The plates are washed again, then incubated with o-phenylenediamine dihydrochloride and H2O2 (Sigma Chemicals, St. Louis, Mo.) in 0.5 M phosphate-citrate buffer, pH 5.0. The absorbance of each well is read at 450 nm.
Compound `CC(C)C[C@@H](CO)NC(=O)[C@@H](NC(=O)[C@@H]1CCCN1C(=O)[C@H](CC(=O)O)NC(=O)[C@@H]1CCCCN1C(=O)[C@H](CCCCN)NC(=O)C[C@H](C)C1CCCCC1)[C@@H](C)O` [Example 4, (S)-CBA-Lys-Pec-Asp-Pro-Thr-leucinol] ({Butanoyl(3S-cHex)}-K[Pip]DPT[Leu(ol)]) displayed a half-inhibitory concentration (IC50) of 116 nM.
`CCCNC(=O)[C@@H](NC(=O)[C@@H]1CCCN1C(=O)[C@H](CC(=O)O)NC(=O)[C@@H]1CCCCN1C(=O)[C@H](CCCCN)NC(=O)CCC1CCCCC1)[C@@H](C)O` [Example 3, CPA-Lys-Pec-Asp-Pro-Thr-propylamide] ({Propanoyl(3-cHex)}-K[Pip]DPT-NHPr) registered an IC50 of 259 nM.
For “(S)-CBA-Lys-Pec-Asp-Pro-Thr-propylamide [Example 2]”, the IC50 stood at 289 nM.
Consider `CCCNC(=O)[C@@H](NC(=O)[C@@H]1CCCN1C(=O)[C@H](CC(=O)O)NC(=O)[C@@H]1CCCCN1C(=O)[C@@H](NC(=O)C[C@H](C)C1CCCCC1)C(C)C)C(C)O` (stereo partly drawn) [Example 1, (S)-CBA-Val-Pec-Asp-Pro-Thr-propylamide] ({Butanoyl(3S-cHex)}-V[Pip]DP[Thr(3ξ)]-NHPr), for which the IC50 is 30 nM.
